# Test results reported in patent publication US10690666B2, “Methods and compositions for modulating TH-GM cell function” (National University of Singapore, priority 2014, dated 2020).
# Key:
# Format in all cases: cell-based, mouse
# neutrophils [1] = assay: In vitro neutrophil transmigration assay; conditions: as chemoattractant; 3 h
# Procedure: (§1) FIGS. 33A-33C depicts GM-CSF enhances neutrophil transmigration and delay apoptosis in vitro. (FIG. 33A) Percentages of migrated neutrophils with or without GM-CSF as chemoattractant in transmigration assay at 3 h post start. (FIG. 33B) Microscopic images of CFSE-labeled neutrophils in the bottom of the lower chamber in transmigration assay. (FIG. 33C) Sorted neutrophils were cultured in vitro with or without GM-CSF (20 ng/ml) for 24 h. Neutrophils undergoing apoptosis were examined by Annexin V and propidium iodide (PI) co-staining. A representative flow cytometry of three repeats was shown. *p<0.05.
# (§2) Neutrophils are recruited during inflammation, in which complex interactions between neutrophils and vascular endothelial cells direct neutrophil adhesion and transmigration from circulation to inflamed tissues (Kolaczkowska and Kubes, 2013). […] Effective neutrophil apoptosis is crucial for the resolution of inflammation. However, in synovitis, neutrophil apoptosis is delayed with a result of extended survival and persistent inflammation (Wright et al., 2014). […] To determine the critical role of neutrophils in AIA, \ neutralizing antibody (1A8) specific for Ly6G was used to deplete neutrophils in vivo. […] Thus, neutrophils accumulation mediated by TH-cell-derived GM-CSF are important for AIA development.
# neutrophils [2] = assay: Neutrophil apoptosis, Annexin V and PI co-staining; conditions: 20 ng/ml, 24 h
# Procedure: as §1, §2
# BMDMs = assay: Cytokine expression by bone marrow-derived macrophages (BMDMs)
# Source text: (§3) FIGS. 34A-34I depicts GM-CSF mediates proinflammatory cytokine expression by myeloid cells and synovial fibroblasts in arthritic mice. Synovial tissues were dissected from wild-type AIA mice and dissociated into single cell suspensions. (FIG. 34A) Flow cytometry plots depicting the fractionation into different populations based on differential expression of surface markers. (FIG. 34B) The mRNA expression of several proinflammatory cytokines in sorted CD45^+ TCRβ^+ (TCRβ^+ in short), CD45^+ TCRβ^−CD11c^−CD11b^+ (CD11b^+) and CD45^+ TCRβ^−CD11c^+ (CD11c^+) populations was measured by qPCR. The qPCR data were normalized to GAPDH. (FIG. 34C) The mRNA expression of IL-6, IL-1β and TNF-α in sorted Ly6C^hiLy6G^− and Ly6C^loLy6G^hi populations (gated on CD11b^+ cells). The qPCR data were normalized to GAPDH. (FIGS. 34D and 34E) The mRNA expression of IL-6 and IL-1β by BMDMs (FIG. 34D) and BMDCs (FIG. 34E) upon stimulation with 20 ng/ml GM-CSF for 1 h. The qPCR data were normalized to GAPDH. (FIGS. 34F and 34G) BMDMs (FIG. 34F) and BMDCs (FIG. 34G) were stimulated with GM-CSF at indicated concentrations (n=3 per group) for 18 h. The secretion of IL-6 in the culture supernatant was quantified by ELISA. (FIG. 34H) BMDMs were primed with LPS (100 μg/ml) in the presence of GM-CSF at indicated concentrations (n=3 per group) for 6 h, followed by stimulation with ATP (5 mM) for 30 min. The secretion of IL-1β in the culture supernatant was quantified by ELISA. (FIG. 34I) Cells were cultured in DMEM medium supplemented with 10% FBS for over 20 days with more than 5 passages to obtain synovial fibroblasts. Synovial fibroblasts were stimulated with GM-CSF (20 ng/ml) for 1 h and harvested for RNA extraction. The mRNA expression of IL-1β was measured by qPCR. The qPCR data were normalized to GAPDH. All data shown represent two independent experiments. *p<0.05, **p<0.01.
# To test the regulatory role of GM-CSF in the expression of IL-6 and IL-1β, bone marrow-derived macrophages (BMDMs) and bone marrow-derived dendritic cells (BMDCs) were cultured, and stimulated with GM-CSF. […] To induce mature IL-1β secretion, BMDMs were primed with LPS for 6 h during which different concentrations of GM-CSF was added, followed by ATP stimulation. […] An inducible effect of GM-CSF on TNF-α expression was not observed in BMDMs, BMDCs or synovial fibroblasts (data not shown). Given the functional importance of IL-6 and IL-1β in arthritis development (Choy and Panayi, 2001), TH-cell-secreted GM-CSF may mediate synovial inflammation also via eliciting the expression of IL-6 and IL-1β from myeloid cells and synovial fibroblasts.
# BMDCs = assay: Cytokine expression by bone marrow-derived dendritic cells (BMDCs)
# Source text: as §3
# To test the regulatory role of GM-CSF in the expression of IL-6 and IL-1β, bone marrow-derived macrophages (BMDMs) and bone marrow-derived dendritic cells (BMDCs) were cultured, and stimulated with GM-CSF. […]
# synovial fibroblasts = assay: Cytokine mRNA expression by synovial fibroblasts
# Source text: as §3, with “(FIG. 34H) BMDMs were primed with LPS (100 μg/ml) in the presence of GM-CSF at indicated concentrations (n=3 per group) for 6 h, followed by stimulation with ATP (5 mM) for 30 min.” left out, “(FIG. 34I) Cells were cultured in DMEM medium supplemented with 10% FBS for over 20 days with more than 5 passages to obtain synovial fibroblasts. Synovial fibroblasts were stimulated with GM-CSF (20 ng/ml) for 1 h and harvested for RNA extraction.” left out, “The qPCR data were normalized to GAPDH. All data shown represent two independent experiments. *p<0.05, **p<0.01.” left out
substance,measurement,setting,value
GM-CSF: granulocyte macrophage colony-stimulating factor (ImmunoTools) given intraarticularly or added to cell cultures,neutrophil adhesion and migration across monolayers of endothelial cells,neutrophils [1],significantly enhanced
same,neutrophil apoptosis,neutrophils [2],profound efficacy in delaying neutrophil apoptosis
same,mRNA expression of IL-6 and IL-1β in BMDMs,"BMDMs; 20 ng/ml, 1 h",quickly upregulated
same,secretion of IL-6 from BMDMs,"BMDMs; 18 h, ELISA",markedly increased
same,secretion of IL-1β from BMDMs,"BMDMs; LPS priming 6 h, then ATP 30 min, ELISA",significantly enhanced
same,TNF-α expression in BMDMs,BMDMs; data not shown,not observed
same,mRNA expression of IL-6 and IL-1β in BMDCs,"BMDCs; 20 ng/ml, 1 h",quickly upregulated
same,secretion of IL-6 from BMDCs,"BMDCs; 18 h, ELISA",markedly increased
same,TNF-α expression in BMDCs,BMDCs; data not shown,not observed
same,IL-1β mRNA expression in synovial fibroblasts,"synovial fibroblasts; 20 ng/ml, 1 h",increased IL-1β mRNA expression
same,TNF-α expression in synovial fibroblasts,synovial fibroblasts; data not shown,not observed
